In patent US20050175535A1 (CV Therapeutics, Inc., priority 2000, published 2005):

Key:
[1] = Coronary blood flow and hemodynamics in conscious dogs; format: in vivo; conditions: for ED50: Canis lupus familiaris, read-out: ED50, increase in mean CBF
Procedure: Ten mongrel dogs (weighing 23-27 kg) were premedicated with Acepromazine (0.3 mg/kg im) and anesthetized with sodium pentobarbital (25 mg/kg) and then intubated and ventilated with room air. A thoracotomy was performed in the left fifth intercostal space using sterile surgical techniques. A Tygon catheter (Cardiovascular Instruments, Inc.) was placed in the descending thoracic aorta for the measurements of blood pressure. A solid-state pressure gauge (P6.5, Konisberg Instrument, Inc) was placed in the apex of the left ventricle for the measurement of the left ventricular systolic pressure (LVSP) and calculation of first derivative of left ventricular pressure (LV dP/dt). A Doppler transducer (Craig Hartley) was placed on the left circumflex coronary artery for measurement of CBF. An hydraulic coronary occluder (In Vivo Metric, Inc) was implanted in 4 dogs around the left circumflex coronary artery. The chest was closed in layers and the catheters and wires were run subcutaneously and exited in the interscapular area. The dogs were allowed 10 to 14 days to recover fully from the surgery and were trained to lie on a laboratory table. The protocols were approved by the Institutional Animal Care and Use Committee of New York Medical College and conform to the “Guiding Principles for the use and Care of Laboratory Animals” of the National Institute of Health and the American Physiology Society.
Arterial pressure was measured by connecting the previously implanted catheter to a strain-gauge transducer (P231D, Statham) and mean arterial pressure (MAP) was derived using 2-Hz low-pass filter. […] Left circumflex CBF was measured using a pulsed Doppler flowmeter (System 6, Triton technology), and mean CBF was derived using a 2-Hz low-pass filter. Mean CR was calculated as the quotient of MAP and CBF. Heart rate was monitored from the pressure pulse interval using a cardiotachometer (Beckman Instruments). The lead-2 of the electrocardiogram was recorded during the experiments in order to examine the alterations in the AV nodal conduction (PR interval). All signals were recorded on a direct-writing oscillograph (Gould 2800).
Hemodynamics were measured before, during and after each dose. Following each dose hemodynamics were allowed to return to baseline before the administration of the next dose. Changes in heart rate, blood pressure, CBF, and ECG were recorded.
Hemodynamic results are expressed as mean±SEM. […] Because no statistical differences were found among the baseline values between each dose for each parameter measure, the first baseline registered during each experiment was used as the control value.

A1 adenosine receptor = target: T1, A1 adenosine receptor (Rattus norvegicus, UniProt P25099); test: A-V nodal conduction time (negative dromotropic effect) in isolated rat hearts
T1 construct: Effect of concentration on AV conduction time and coronary conductance in isolated rat hearts; tissue Simonsen Laboratories (Gilroy, Calif.); host or cells: isolated perfused rat heart (Sprague Dawley)
T1 sequence (P25099 1-326): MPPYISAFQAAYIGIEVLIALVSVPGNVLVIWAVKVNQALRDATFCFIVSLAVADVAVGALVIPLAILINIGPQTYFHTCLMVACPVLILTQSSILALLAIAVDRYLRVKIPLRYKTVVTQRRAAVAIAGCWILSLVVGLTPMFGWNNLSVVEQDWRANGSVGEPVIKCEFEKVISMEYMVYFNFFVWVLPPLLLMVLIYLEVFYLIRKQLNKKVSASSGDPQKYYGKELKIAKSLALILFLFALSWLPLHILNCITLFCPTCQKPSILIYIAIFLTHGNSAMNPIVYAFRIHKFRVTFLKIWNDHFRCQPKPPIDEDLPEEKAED

[2] = target: T2, A2A adenosine receptors (PC12 cells) (Rattus norvegicus, UniProt P30543); test: cAMP accumulation in PC12 cells
Procedure: Effects of adenosine receptor agonists on cAMP content in intact PC12 cells. […] Cyclic AMP levels were determined as described under “Methods”. Values represent mean±SEM of results of triplicate samples from three experiments. […] Values represent mean±SEM of triplicate determinants from one representative experiment.
Briefly, PC12 cells were rinsed three times with Hanks' balanced saline solution (HBSS), detached using a cell lifter, and pelleted by centrifugation at 500 g for 5 minutes. Aliquots of the cell suspension (0.1 to 0.2 mg protein) were placed in microfuge tubes with 250 μL of HBSS containing rolipram (50 μmol/L) to inhibit phosphodiesterases that degrade cAMP_and warmed to 37° C. Appropriate drugs were added to the cell suspensions, and incubations were allowed to continue for 10 minutes. Tubes were placed in a boiling water bath for 5 minutes to terminate the incubation. The samples were then cooled to room temperature, diluted by the addition of 1 mL of 10 mmol/L Tris-HCl buffer at pH 7.4, and then centrifuged for 2 minutes at 13000 g.
The samples were then incubated at 4° C. for 16 hours. At the end of the incubation, 70 μL of a 50% (wt/vol) hydroxyapatite suspension was added to each tube. The suspensions were gently agitated and then incubated for 10 minutes at 4° C. Antibody-bound radioactivity adsorbed to hydroxyapatite was collected onto glass fiber filters by vacuum filtration using a Brandel cell harvester. Radioactivity retained by the filter was counted in a gamma counter. […] The amount of cAMP present in samples was calculated based on a standard curve using known amounts of cAMP.

[3] = target: T2, A2A adenosine receptors (PC12 cells); test: Rate of decline of agonist-stimulated cAMP in PC12 cells after A2A antagonist SCH58261; conditions: agonist 1 μM, after addition of SCH58261 (20 μM)
[4] = Coronary blood flow and reversal time, intracoronary infusion in open-chest anesthetized pigs; format: in vivo; conditions: 50 ug/kg/min intracoronary
Procedure: The magnitude of the effect of A2A adenosine receptor agonists on coronary dilation and the duration of the effect was determined in pigs weighing 22-27 kg. […] In addition, animals were used in accordance with the guidelines of the University of Kentucky Institutional Animal Care and Use Protocol.
Anesthesia was maintained with additional sodium pentobarbital (1.5-2 mg/kg, i.v.) every 15-20 minutes. Animals were ventilated via a tracheotomy tube using a mixture of room air and 100% O2. Tidal volume, respiratory rate and fraction of O2 in inspired air were adjusted to maintain arterial blood gas (ABG) and pH values. […] Lactate Ringers solution was administered via an ear or femoral vein as an initial bolus of 300-400 ml followed by a continuous infusion at a rate of 5-7 ml/kg/hr. A catheter was inserted into the femoral artery to monitor arterial blood pressure.
The heart was exposed through a median sternotomy and suspended in a pericardial cradle. Left ventricular pressure (LVP) was measured with a 5F high fidelity pressure sensitive tip transducer (Millar Instruments, Houston, Tex.) placed in the left ventricular cavity via an apical incision and secured with a purse string suture. A segment of the left anterior descending coronary artery (LAD), proximal to the origin of the first diagonal branch, was dissected free of surrounding tissue. A transit time perivascular flow probe (Transonic Systems Inc., Ithaca, N.Y.) was placed around this segment to measure CBF. Proximal to the flow probe, a 24-gauge modified angiocatheter was inserted for intracoronary infusions. […] The A2A adenosine receptors agonists were administered intracoronary.
Relationship between affinity of various agonists for A2A adenosine receptor and the reversal time of their effect to increase coronary conductance was determined in pigs. Each experiment was preceded by a 30-minute stabilization period following the completion of all instrumentation of the animal. Baseline hemodynamic data were then recorded and an intracoronary infusion of an A2A Adenosine receptors agonist was initiated. Each infusion was maintained for 4-5 minutes to allow LAD CBF to reach a steady-state, after which the infusion was terminated. The times to recovery of CBF by 50% (t0.5) and 90% (t0.9) of the difference from peak effect to baseline CBF were recorded. Ten to 15 minutes after CBF returned to pre-drug values a second infusion with a different agonist was started. […] Hemodynamic measurements were made prior to and following the initiation of the phenylephrine infusion. The phenylephrine infusion rate was adjusted during and following the infusions of the adenosine receptor agonists to maintain arterial blood pressure within 5 mmHg of pre-infusion values. The effect of a maximum of three different agonists was determined in each experiment.

[5] = target: human A2A adenosine receptors (Homo sapiens, UniProt P29274); test: Competitive radioligand binding, [3H]ZM241385, HEK-hA2AAdoR membranes
Sequence of human A2A adenosine receptors (P29274 whole entry): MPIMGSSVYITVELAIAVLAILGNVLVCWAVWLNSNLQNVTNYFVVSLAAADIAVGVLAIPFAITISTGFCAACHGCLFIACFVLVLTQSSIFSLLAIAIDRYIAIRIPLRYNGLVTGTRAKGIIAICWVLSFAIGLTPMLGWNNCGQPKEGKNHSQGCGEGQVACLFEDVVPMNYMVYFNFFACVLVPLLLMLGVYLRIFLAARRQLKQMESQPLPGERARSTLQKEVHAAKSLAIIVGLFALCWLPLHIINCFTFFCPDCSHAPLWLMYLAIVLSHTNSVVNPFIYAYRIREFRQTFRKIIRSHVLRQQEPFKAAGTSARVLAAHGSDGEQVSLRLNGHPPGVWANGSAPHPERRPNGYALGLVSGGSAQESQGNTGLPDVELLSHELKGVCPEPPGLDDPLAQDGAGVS
Procedure: Each point represents the mean±SEM of triplicates pooled from at least three experiments.
ZM241385 was purchased from Tocris Cookson Ltd (Langford, Bristol, UK).
Competitive radiolabeling binding assays were performed to determine the binding affinities of the compounds of the invention for the adenosine receptor subtypes, A1, A2A, A2B and A3. Briefly, membrane suspensions, obtained from cells expressing either adenosine receptor subtypes A1, A2A, A2B or A3were incubated for 2 hours at room temperature in 50 mmol/L Tris-HCl buffer (pH 7.4) containing ADA (1U/mL). […] At the end of the incubation, free radioligand was separated from membrane-bound radioligand by filtration through Whatman GF/C glass fiber filters using a Brandel tissue harvester (Gaithersburg, Md.). Triplicate determinations were performed for each concentration of unlabelled compound.

T2 sequence (P30543 whole entry): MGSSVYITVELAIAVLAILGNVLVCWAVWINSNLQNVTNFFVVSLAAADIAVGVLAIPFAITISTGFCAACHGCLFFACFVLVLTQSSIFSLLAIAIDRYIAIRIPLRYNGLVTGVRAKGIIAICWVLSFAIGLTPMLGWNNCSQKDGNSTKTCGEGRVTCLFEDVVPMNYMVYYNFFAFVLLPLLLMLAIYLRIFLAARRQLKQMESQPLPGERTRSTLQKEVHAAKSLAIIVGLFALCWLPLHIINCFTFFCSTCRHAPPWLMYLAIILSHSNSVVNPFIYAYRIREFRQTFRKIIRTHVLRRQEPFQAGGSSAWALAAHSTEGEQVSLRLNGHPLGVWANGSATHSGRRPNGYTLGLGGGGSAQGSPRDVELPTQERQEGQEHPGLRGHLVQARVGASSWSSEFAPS

Nc1ncnc2c1ncn2[C@@H]1O[C@H](CO)[C@@H](O)[C@H]1O [Adenosine, adenosine, reference compound]
increase in LVSP ([1]; 67 μg/kg, conscious dogs): 12±3%
increase in LVSP ([1]; 134 μg/kg, conscious dogs): 12±3%
maximal decrease in CR ([1]; 267 μg/kg iv, conscious dogs): 73±1%
increase in LVSP ([1]; 267 μg/kg, conscious dogs): 18±6%
increase in dP/dt ([1]; 267 μg/kg, conscious dogs): 29±7%
ED50 ([1]; IV bolus, conscious dogs): 0.051 ± 0.015 mg/kg

CNC(=O)c1cnn(-c2nc(N)c3ncn(C4O[C@@H](CO)[C@H](O)[C@@H]4O)c3n2)c1 (stereo partly shown) [CVT-3146]
effect on A-V nodal conduction time (A1 adenosine receptor): did not prolong A-V nodal conduction time
EC50 [2]: 291 nM
maximal decrease in CR ([1]; 2.5 μg/kg iv, conscious dogs): 73±2%
increase in dP/dt ([1]; 2.5 μg/kg, conscious dogs): 39±7%
maximal decrease in CR ([1]; 5 μg/kg iv, conscious dogs): 75±2%
ED50 ([1]; IV bolus, conscious dogs): 0.00034 ± 8e-05 mg/kg
maximal increase in mean CBF from baseline ([1]; IV bolus, conscious dogs, baseline 45±3 ml/min): 154 ± 16 mL/min
changes in LVSP ([1]; increasing doses, conscious dogs (data not shown)): did not cause significant changes in LVSP

CCCCCn1cc(-c2nc(N)c3ncn(C4O[C@@H](CO)[C@H](O)[C@@H]4O)c3n2)cn1 (stereo partly shown) [CVT-3033]
effect on A-V nodal conduction time (A1 adenosine receptor): did not prolong A-V nodal conduction time
EC50 [2]: 487 nM
shift to the right of the CGS21680 concentration-response curve ([2]; CVT-3033 1 μM, PC12 cells): ~5 fold
Emax ([2]; PC-12, read-out: maximal response of cAMP accumulation, % of that induced by CGS21680): 63%
agonist behaviour in PC12 cells ([2]; cAMP accumulation): partial A2A agonists
t0.5, rate of decline of cAMP accumulated [3]: 1.9 ± 0.1 min
CBF (fold-increase) [4]: 3.33 ± 0.58 fold
t0.5 reversal of increase in coronary blood flow [4]: 3.1 ± 0.9 min
t0.9 reversal of increase in coronary blood flow [4]: 12.0 ± 1.0 min
Ki ([5]; binding affinity in HEK cells expressing human A2A receptors (Ki)): 2900 nM
Ki ([5]; pKi ± SEM, HEK-hA2AAdoR, [3H]ZM241385): 2880 nM
